Measured values reported in patent US5795882A, “Method of treating prostatic diseases using delayed and/or sustained release vitamin D formulations” (Bone Care International, Inc., priority 1996, dated 1998).

Assays:
[1] = Blood level of 1α,25-(OH)2 D3 in vitamin D-deficient rats after oral dosing (Example 3); format: in vivo, rat; settings: oral 0.25 μg/kg, 4 h
Description: Male weanling rats are fed a diet deficient in vitamin D and with normal calcium (0.47%). […] Four hours after administration, the rats are killed and their blood level of 1α,25-(OH)2 D3 is measured using a standard technique.

[2] = Comparison of oral bioavailability in rachitic rats (Example 5); format: in vivo, rat; settings: oral, 12 h
Description: Three-week-old rats were maintained on a vitamin D-deficient diet containing normal levels of calcium and phosphorus for 3-6 weeks until marked hypocalcemia was observed. […] A control group received only the vehicle. For all treatment groups, blood was obtained at 12 hours postdosing, and analyzed for serum levels of the vitamin form.

[3] = Equilibration of previtamin to vitamin form during binding incubation (HPLC); format: physicochemical; settings: end of the VDR binding incubation, read-out: fraction equilibrated to the vitamin form
[4] = In vitro thermal conversion of 1α-hydroxyprevitamin D to 1α-hydroxyvitamin D; format: physicochemical; settings: in ethanol, 37° C.
Description: A series of experiments were conducted which address the in vitro conversion of previtamin to vitamin for three 1α-hydroxyprevitamin D's: 1α-hydroxyprevitamin D2, 1α,24-dihydroxyprevitamin D2 and 1α-hydroxyprevitamin D3. Each 1α-hydroxyprevitamin D was dissolved in ethanol, incubated at 37° C. in a water bath, and samples taken at two-hour intervals. An analytical HPLC separation was performed on each sample to quantify the thermal conversion of the previtamin to the vitamin form. The data collected were normalized to account for the presence of any vitamin form in the initial formulation (≤10%). The results are presented in FIG. 1 which is a plot of % previtamin versus time in hours. Linear regression lines were generated for each previtamin.

[5] = Pharmacokinetics of 1α,25-(OH)2 D3 in vitamin D-deficient rats after oral dosing (Example 4); format: in vivo, rat; settings: single oral dose, 2-48 h
Description: One group is killed 8 hours after dosing with the vehicle. […] The blood is collected and analyzed for 1α,25-(OH)2 D3 levels.

**Q.** Which “blood level of 1α,25-(OH)2 D3 versus control” value [1] does the source give for `CC1=C(/C=C\C2=CCC[C@]3(C)[C@@H]([C@H](C)CCCC(C)(C)O)CC[C@@H]23)C[C@@H](O)C[C@@H]1O` [1α,25-(OH)2 preD3, 1α,25-dihydroxyprevitamin D3] here?
**A.** significantly elevated

**Q.** What about the “oral bioavailability versus 1α,25-(OH)2 D3” value [2] of the same compound?
**A.** greater bioavailability than the active form of the vitamin

**Q.** What about the degraded [3] of the same compound?
**A.** ~2%

**Q.** What about the half-life [4] of the same compound?
**A.** 17.7 h

**Q.** And the “1α,25-(OH)2 D3 serum levels” value [5]?
**A.** increased 1α,25-(OH)2 D3 serum levels

**Q.** What about the “time profile of serum 1α,25-(OH)2 D3 increase versus dosing with 1α,25-(OH)2 D3” value [5] of the same compound?
**A.** more gradual and sustained for a greater duration
